# Reference: US20040121931A1, “Aqueous perborate bleach composition” (Unilever Home & Persona Care USA, Division of Conopco, Inc., priority 2002, published 2004)
# Assay: Iterative determination of perborate solubility in water and polyol/water (visual)
# Format: physicochemical
# Procedure: An iterative process was used to determine the extent of perborate solubilty in water and polyol/water. 1.5 g of Na perborate monohydrate was added either to 100 g of water (Table 1A) or to 90 g water and 10 g sorbitol (70% active) (Table 1B). The mixture was stirred until all of sodium perborate monohydrate was dissolved. A 0.5 g aliquot of sodium perborate monohydrate was then added to the solution while stirring and visually monitored to see if all the added sodium perborate monohydrate dissolves. If the aliquot dissolved, another 0.5 g of sodium perborate monohydrate would be added. This procedure was continued until the added perborate no longer appeared to dissolve.
# [1] = 1.50 g in 90 g water + 10 g sorbitol (70%), perborate/sorbitol 1/3.55
# [2] = 3.50 g in 90 g water + 10 g sorbitol (70%), perborate/sorbitol 1/1.01
# [3] = 5.50 g in 90 g water + 10 g sorbitol (70%), perborate/sorbitol 1.43/1
# [4] = 8.00 g in 90 g water + 10 g sorbitol (70%), perborate/sorbitol 2.09/1
# [5] = 8.50 g in 90 g water + 10 g sorbitol (70%), perborate/sorbitol 2.22/1
# [6] = 9.50 g in 90 g water + 10 g sorbitol (70%), perborate/sorbitol 2.49/1
smiles,measurement,setting,value
"O.O=BO[O-].[Na+] [Sodium Perborate monohydrate, sodium perborate monohydrate]",Appearance,[1],Clear solution
same,pH,[1],8.30
same,Appearance,1.5 g in 100 g water,Clear solution
same,pH,1.5 g in 100 g water,10.00
same,Appearance,2.0 g in 100 g water,Precipitate formed
same,pH,2.0 g in 100 g water,10.06
same,Appearance,[2],Clear solution
same,pH,[2],9.33
same,Appearance,[3],Clear solution
same,pH,[3],9.56
same,Appearance,[4],Clear solution
same,pH,[4],9.60
same,Appearance,[5],Precipitate
same,pH,[5],9.60
same,Appearance,[6],Precipitate
same,pH,[6],9.60
same,"solubility in water, in the presence of polyol",90 g water and 10 g sorbitol (70% active),up to 8.5 g
same,increase of solubility of perborate by polyol,"aqueous environment, with sorbitol vs without",about 400%
same,solubility in water,"in 100 g water, no polyol",below 2.0 g
